Test [1] deals with T1, Diacylglycerol O-acyltransferase 1 (Mus musculus, UniProt Q9Z2A7).
T1 sequence (Q9Z2A7 whole entry): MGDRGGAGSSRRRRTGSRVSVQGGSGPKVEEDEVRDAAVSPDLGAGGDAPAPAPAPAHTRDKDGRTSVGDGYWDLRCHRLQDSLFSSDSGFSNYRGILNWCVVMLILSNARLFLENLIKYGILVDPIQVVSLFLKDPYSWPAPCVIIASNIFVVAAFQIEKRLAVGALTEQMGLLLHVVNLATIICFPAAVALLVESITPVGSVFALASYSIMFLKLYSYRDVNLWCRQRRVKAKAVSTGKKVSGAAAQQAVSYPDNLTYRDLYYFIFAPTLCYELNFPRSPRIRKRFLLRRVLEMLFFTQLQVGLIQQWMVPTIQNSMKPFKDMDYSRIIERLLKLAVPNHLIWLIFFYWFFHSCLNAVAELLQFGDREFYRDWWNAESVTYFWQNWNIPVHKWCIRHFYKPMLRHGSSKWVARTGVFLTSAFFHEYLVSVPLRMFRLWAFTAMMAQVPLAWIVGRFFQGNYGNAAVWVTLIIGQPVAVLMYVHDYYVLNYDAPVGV
Kind of test: In Vitro FlashPlate Assay. To be noted: pH 7.5; 22 °C. The protocol:
(§1) DGAT-1 activity was characterized by catalyzing the transfer of the radiolabeled decanoyl group onto the syn-3 position of didecanoyl glycerol. The resultant radiolabeled tridecanoyl glycerol (tricaprin) preferentially binds to the hydrophobic coating on the phospholipid FlashPlate, and radioactivity was measured in the TopCount Plate Reader. Various concentrations (0.0001 uM to 10 uM) of test compounds were added to individual wells prior to the addition of membranes.

Test [2] has as its target T2, Diacylglycerol O-acyltransferase 1 (Homo sapiens, UniProt O75907).
T2 sequence (O75907 whole entry): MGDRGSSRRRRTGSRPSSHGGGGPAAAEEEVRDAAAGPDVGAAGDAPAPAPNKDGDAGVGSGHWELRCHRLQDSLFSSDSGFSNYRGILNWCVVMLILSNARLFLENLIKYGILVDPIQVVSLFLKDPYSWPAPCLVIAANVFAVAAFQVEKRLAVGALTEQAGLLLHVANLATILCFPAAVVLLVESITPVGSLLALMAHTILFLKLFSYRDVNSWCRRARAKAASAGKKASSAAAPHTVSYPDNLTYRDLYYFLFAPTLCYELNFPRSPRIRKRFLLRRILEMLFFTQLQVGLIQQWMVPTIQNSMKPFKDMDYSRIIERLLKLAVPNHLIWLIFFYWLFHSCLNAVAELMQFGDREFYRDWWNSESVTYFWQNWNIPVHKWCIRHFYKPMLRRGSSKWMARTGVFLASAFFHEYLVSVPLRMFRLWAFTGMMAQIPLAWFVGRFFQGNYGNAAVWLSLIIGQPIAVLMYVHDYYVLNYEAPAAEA
Nature of the test: In Vitro FlashPlate Assay. To be noted: pH 7.5; 22 °C. The protocol:
as §1

pIC50: −log10 of the molar value.

Consider `COc1ccc(NC(=O)Nc2ccc(-c3ccc(C(=O)[C@@H]4CCC[C@H]4C(=O)O)cc3)cc2)cc1` [(1R,2R)-2-{[4-(4-{[(4-methoxyphenyl)carbamoyl]amino}phenyl)phenyl]carbonyl}cyclopentane-1-carboxylic acid], for which the figures for the pIC50 in test [1] and in test [2] were 7.55 and 8.05, respectively.

(Values after BindingDB's records for doi:10.1021/jm7013887 (Abbott Laboratories, 2008).)
